Test results as given in paper PMC9967152 (International Journal of Molecular Sciences, 2023).
Where a SMILES comes first, the peptide text is derived from it. [ ]: non-standard residue; d: D form. The star is where a group is joined. Daunorubicin(13-NOCH2CO) = COc1cccc2c1C(=O)c1c(O)c3c(c(O)c1C2=O)C[C@@](O)(C(C)=NOCC(=O)*)C[C@@H]3O[C@H]1C[C@H](N)[C@H](O)[C@H](C)O1; Nle = CCCC[C@H](N)C(=O)O

What was measured:
mice = conditions: mouse experimental model; cited from earlier work
Description: Before testing the effect of our newly developed PDCs on tumour growth in vivo, we performed a chronic toxicity study to determine the ideal dosage of the compounds. Administration of daunorubicin is shown to cause severe cardiotoxic side effects, therefore, its maximum tolerated dose is 1 mg/kg in the case of our experimental model. However, when conjugated to targeting moieties, its side effects can be reduced; moreover, its tumour inhibition capabilities can be increased.

[1] = test system: PC-3 human prostatic adenocarcinoma xenograft in NOD-SCID mice; assay: In vivo tumour growth inhibition, subcutaneous PC-3 xenograft; set-up: species or system mouse; conditions: free drug 1 mg/kg, two treatments, n = 8
Description: The testing of the antitumour conjugates was carried out in a murine xenograft model. It was established by inoculating subcutaneously 100 µL of cell suspension of PC-3 prostate cancer cells with a concentration of 2 × 10^7 cells/mL.
Once the tumour volume reached 60 mm^3, mice were randomised and assigned to different groups for each treatment, respectively 0.9% saline as control, free daunorubicin, L5, and L6. Each group consisted of eight mice. Peptide–drug conjugates were injected intraperitoneally every 5th day, five times in total (daunorubicin dosage of 10 mg/kg for each treatment). In the case of free daunorubicin, two treatments were administered at the same time points as the first two treatments with conjugates, with a dosage of 1 mg/kg, the maximum tolerated dose (MTD). Weight and tumour size of mice were monitored throughout the whole experiment, two times per week. On day 33, mice were euthanized, and primary tumour, heart, lung, liver and spleen were harvested and stored in 4% formalin (Molar Chemicals, Halásztelek, Hungary). After 2–3 days of incubation in formalin, tissue samples were examined macroscopically. Organs and primary tumours from the different treatment groups were weighed and inspected under a stereomicroscope to see any occurrent changes in morphology compared to the controls.

MRC-5 human fibroblasts = assay: Toxicity on non-cancerous cells (dose-response curves); format: cell-based; conditions: Figure S15
Text: The lack of toxicity of the conjugates on healthy cells was checked on MRC-5 human fibroblasts, proving that they are non-toxic on non-cancerous cells (see Supplementary Materials, Figure S15).
Figure S15. Dose-response curves of the PDCs and Dau on MRC-5 human fibroblast cell line. Only […]
Figure S16. Flow cytometry measurements for the uptake of all the PDCs on MDA-MB-231 (A), MDA-MB-453 (B) and PC-3 (C) human cancer cell lines. The percentage of cells containing the Dau-conjugates was evaluated on four concentrations (%, mean ± SD, n= 2). Given that above 12.5 µM the internalisation may not only be receptor-mediated, this concentration was considered to com-pare the uptake of the bioconjugates. […]

[2] = test system: PC-3 human prostate adenocarcinoma cells; assay: MTT assay, in vitro cytostatic effect; format: cell-based; conditions: Homo sapiens, 24 h treatment at 3.125–25 µM, then cultured up to 72 h, mean ± SD, n = 2 independent experiments with four parallels
Description: (§1) Cells were distributed into 96-well tissue culture plates with an initial cell number of 5.0 × 10^3 per well. After 24 h incubation at 37 °C, the cells were treated with the compounds in 200 µL final volume containing 1.0 v/v% DMSO and 10% H2O. […] After incubation, the cells were washed twice with a serum-free medium. To determine the in vitro cytostatic effect, the cells were further cultured up to 72 h in a 10% serum-containing medium. A solution of 3-(4,5-dimethylthiazol-2-yl)-2,5-diphenyltetrazolium bromide and MTT-solution, (45 µL, 2 mg/mL, final concentration: […]) were added to each well. The respiratory chain [67] and other electron transport systems reduce MTT, and thereby form non-water-soluble violet formazan crystals within the cell. […] After 3 h of incubation, the cells were centrifuged for 5 min at 1000 g and the supernatant was removed. The obtained formazan crystals were dissolved in DMSO (100 μL) and the optical density (OD) of the samples was measured at λ = 540 and 620 nm, respectively, using ELISA Reader (iEMS Reader, Labsystems, Finland). OD620 values were subtracted from OD540 values. The percentage of cytostasis was calculated by using the following equation:Cytostatic effect (%) = [1 − (ODtreated/ODcontrol)] × 100(1)
(§2) Values of ODtreated and ODcontrol correspond to the optical densities of the treated and the control cells, respectively. In each case, two independent experiments were carried out with four parallel measurements. The 50% inhibitory concentration (IC50) values were determined from the dose–response curves. The curves were defined using Microcal™ Origin 2018 software: cytostasis was plotted as a function of concentration, fitted to a sigmoidal curve, and based on this curve, the half-maximal inhibitory concentration (IC50) value was determined. IC50 represents the concentration of a compound that is required for 50% inhibition in vitro and is expressed in micromolar units.

[3] = test system: MDA-MB-231 human breast adenocarcinoma cells; assay: MTT assay, in vitro cytostatic effect; format: cell-based; conditions: Homo sapiens, MDA-MB-231, 24 h treatment at 3.125–25 µM, then cultured up to 72 h, mean ± SD, n = 2 independent experiments with four parallels
Description: as §1, §2

[4] = test system: MDA-MB-453 human metastatic epithelial breast carcinoma cells; assay: MTT assay, in vitro cytostatic effect; format: cell-based; conditions: Homo sapiens, MDA-MB-453, 24 h treatment at 3.125–25 µM, then cultured up to 72 h, mean ± SD, n = 2 independent experiments with four parallels
Description: as §1, §2

[5] = Stability in incomplete (serum-free) DMEM; format: in vitro ADME; conditions: 25 µM, 37 °C, 600 rpm, LC–MS, n = 2
Description: The conjugates were incubated in incomplete DMEM for 3 h (similarly to the internalisation studies) or in 2.5% FBS containing DMEM for 24 h (conditions for the MTT assay). […] No significant loss of L1 and L5 (<20%) or L6 (<30%) was observed after 3 h (see Supplementary Materials, Figure S17).
DMSO stock solutions of the conjugates (2.5 mM) were diluted in DMEM free from or containing 2.5% FBS, to a final concentration of 25 μM. The mixture was incubated and stirred at 37 °C, 600 rpm, and 30 µL aliquots were collected after 0 min, 0.5, 1, 2, 4, 8 and 24 h, in duplicates. Then, to each sample, 90 µL of 0.1% formic acid containing MeCN was added and the samples were frozen at −25 °C for ≥30 min to aid protein precipitation. Large FBS components were removed by centrifugation (15 min, 5000 g, 4 °C). Aliquots of 50 µL supernatant were diluted with an equal volume of ddH2O + 0.1% formic acid and analysed by LC–MS. Control measurements were performed in the same manner (25 μM bioconjugate in 100% ddH2O).

[6] = Stability in mouse plasma; format: in vitro ADME; conditions: 37 °C, HPLC-MS
Description: Due to their low IC50 values and internalisation on the tested cell lines, conjugates L1, L5 and L6 were chosen for investigation of their stability in mouse plasma, as potential candidates for in vivo studies. They were incubated at a concentration of 10 µM, with mouse plasma for 24 h at 37 °C. Samples were collected at 0 h, 30 min, 1 h, 2 h, 4 h, 8 h and 24 h and analysed by HPLC-MS. […] Furthermore, after 2 h, L1 starts to release the toxic metabolite Dau=Aoa-Leu-OH, whereas this happens only after 24 h for L5 and L6, in a considerably low amount (see Supplementary Materials, Figures S18–S20).
The conjugates were dissolved in ddH2O containing 10% DMSO (stock solution: 100 μM) and diluted with mouse plasma to a final concentration of 10 μM. The mixture was incubated and stirred at 37 °C, 600 rpm, and 30 µL aliquots were collected after 0 min, 0.5, 1, 2, 4, 8 and 24 h, in triplicates. Then, to each plasma sample, 90 µL of 0.1% formic acid containing MeCN was added, and the samples were frozen at −25 °C for ≥30 min to aid protein precipitation. Large plasma proteins were removed by centrifugation (15 min, 5000× g, 4 °C). Aliquots of 50 µL supernatant were diluted with an equal volume of ddH2O + 0.1% formic acid and analysed by LC–MS. Control measurements were performed in the same manner (10 μM bioconjugate in 100% ddH2O).

[7] = Metabolism in rat liver lysosomal homogenate; format: in vitro ADME; conditions: 0.2 M NaOAc pH 5.05, 37 °C, conjugate–lysosomal protein 1:10 (w/w), HPLC-MS, triplicates
Description: All the conjugates contain a cathepsin B cleavable spacer, either GFLG or LRRY, to allow the release of the toxic payload in lysosomes after receptor-mediated internalisation. We explored the metabolism of L1, L3, L5 and L6 in rat liver lysosomal homogenate to mimic this situation. The experiment was performed over 72 h, sampling at 0 min, 15 min, 30 min, 1 h, 2 h, 6 h, 24 h and 72 h in triplicates. All the (Dau=Aoa-LRRY)–BBN (7-14) conjugates have a similar degradation profile and they quickly release the active metabolite Dau=Aoa-Leu-OH, which can be detected after 15 min (Figure 3). […] Its signal cannot be detected anymore already after 1 h.
The rat liver lysosomal homogenate was prepared based on our previously published procedure, with small modifications: livers from two male Wistar rats (32.6 g and 41.2 g, respectively) were collected, minced with a knife and homogenised in two volumes of ice-cold 0.3 M sucrose, using a T25 Ultra Turrax homogenizer (∼100 mL). […] The protein concentration was determined by measuring the absorbance at 260 nm and 280 nm, and was calculated using the formula: Concentration (μg/μL) = 1.55 ∗ A280 − 0.76 ∗ A260; it was determined as 71.76 μg/μL. […]
The conjugates (2.5 μg/μL in DMSO, 5 μL) were diluted with 0.2 M NaOAc solution (pH 5.05, 495 μL) to 0.025 μg/μL. […] The composition of the samples was determined by HPLC-MS.

| Compound | Maximum tolerated dose (mice) [mg/kg] | Day at which fitness of mice decreased to a critical state [1] [days] | Effect on tumour growth [1] | Toxicity on MRC-5 human fibroblasts (MRC-5 human fibroblasts) | IC50 [2] [nM] | IC50 [3] [nM] | IC50 [4] [nM] | time to release of active metabolite Dau=Aoa-Leu-OH [min] | Loss of conjugate after 3 h [5] [%] | Time after which release of the toxic metabolite Dau=Aoa-Leu-OH starts ([6]; 10 µM, for L5 and L6 in a considerably low amount) [h] | remaining at 8 h, 10 μM ([6]; 600 rpm, n = 3, read-out: Detected fraction after 8 h) [%] | half-life at 10 μM ([6]; 600 rpm, n = 3, read-out: t1/2 in mouse plasma (converted)) [h] | Time after which the signal of the intact conjugate cannot be detected anymore [7] [h] |
| --- | --- | --- | --- | --- | --- | --- | --- | --- | --- | --- | --- | --- | --- |
| COc1cccc2c1C(=O)c1c(O)c3c(c(O)c1C2=O)C[C@@](O)(C(C)=O)C[C@@H]3O[C@H]1C[C@H](N)[C@H](O)[C@H](C)O1 [Dau, daunorubicin, reference compound] | 1 | 26 | did not significantly reduce tumour growth | reveals toxicity | 750 ± 10 | 900 ± 60 | 810 ± 70 | – | – | – | – | – | – |
| CCCC[C@H](NC(=O)[C@H](CC(C)C)NC(=O)[C@H](Cc1c[nH]cn1)NC(=O)CNC(=O)[C@@H](NC(=O)[C@H](C)NC(=O)[C@H](Cc1c[nH]c2ccccc12)NC(=O)[C@H](CCC(N)=O)NC(=O)[C@H](Cc1ccc(O)cc1)NC(=O)[C@H](CCCNC(=N)N)NC(=O)[C@H](CCCNC(=N)N)NC(=O)[C@H](CC(C)C)NC(=O)CON=C(C)[C@]1(O)Cc2c(O)c3c(c(O)c2[C@@H](O[C@H]2C[C@H](N)[C@H](O)[C@H](C)O2)C1)C(=O)c1c(OC)cccc1C3=O)C(C)C)C(N)=O [L1, (Dau=Aoa)-LRRY-BBN(7-14)[Nle14]] ({Daunorubicin(13-NOCH2CO)}-LRRYQWAVGHL[Nle]-NH2) | – | – | – | – | – | – | – | < 30 | < 20 | 2 | 20 | 3.8 | ≤ 1 |
